Results: patent US20160008298A1, “XANTHOHUMOL-BASED COMPOUNDS AND COMPOSITIONS THEREOF, AND METHODS OF MAKING AND USING THE SAME” (Oregon State University, priority 2014, published 2016)

What was measured:
[1] = system: C2C12 skeletal muscle cells; experiment: Seahorse OCR and ECAR measurements after oligomycin; assay type: cell-based, mouse; conditions: for increase in oxygen consumption: as summarised in Example 2
Procedure: OCR and ECAR measurements were performed with a Seahorse XF 24 Analyzer (Seahorse Bioscience). Cells were plated 24 hours prior to measurements at a density of 40,000 cells per well within growth medium in a 24-well plate. The cells were then allowed to adhere for 24 hours (37° C., 5% CO2). Prior to the assay, the cells were washed with freshly prepared running media consisting of Seahorse XF Assay medium (Seahorse Bioscience, North America, USA), 10 mM glucose and 1 mM sodium pyruvate. The pH of the medium was adjusted to 7.4 with 1 M NaOH. The cells were then equilibrated for one hour at 37° C. without CO2. The compounds were injected during the assay; OCR and ECAR were measured at 9 minutes measurement intervals. The solutions of oligomycin, FCCP, XN, DXN and TXN were freshly prepared in running medium. The final concentrations in the wells were: 1 μM for oligomycin, 5 μM for XN, DXN and TXN and 2, 5, 8, 25 μM for the dose response experiments with DXN. Ethanol was added to the control wells not to exceed a final concentration of 0.1%. All the compounds were tested in quadruplicate on the 24-well plate. XN is highly non-polar and FBS can be used to dissolve XN. Thus, XN, DXN and TXN were first dissolved in ethanol and the resulting solutions were diluted 100-fold in running medium containing 1% of FBS. After a further 10-fold dilution into the media in wells, only 0.1% of FBS was present during OCR measurements. […] The concentration of oligomycin and the cell density used were selected based on preliminary experiments.
Seahorse data were analyzed in SAS 9.2 (SAS Institute Inc., Cary, N.C.). To show a consistent baseline, OCR values (in pmol/min/mg protein) and ECAR values (in mpH/min/mg protein) for each value were divided prior to statistical analysis by the average of the four pre oligomycin treatment values (0, 8, 17, and 25 minutes) for the corresponding well and are shown as % pre oligomycin values. The original scale for OCR and for ECAR values was utilized for the OCR/ECAR ratio (in pMol/mpH). To account for repeated measures within wells over time, a repeated-measures-in-time design using ANOVA procedures in PROC MIXED was used. Fixed effects in the model were treatment (control, 2 μM DXN, 5 μM XN, 5 μM DXN, and 5 μM TXN for the compound study and control, 2, 5, 8, and 25 μM DXN for the DXN dosage study), time (0, 8, 17, 25, 34, 43, 52, 60, 69, 78, 86, and 95 minutes), and their interaction. The random effect was the experiment (5 experiments for the compound study and 3 experiments for the DXN dosage study). To account for repeated measures within wells over time, a first order homogeneous variance-covariance matrix [AR(1)] was fitted for each well. Using the ESTIMATE statement, a priori contrasts were constructed by comparing the changes in compound treated cells from the last two time points prior to compound treatment (average 52 and 60 minutes) to the changes in control cells during the same time period. This was done for each compound and dosage for 69, 78, 86, and 95 minutes separately and for all four time points combined. […] A P-value of 0.05 was considered statistically significant and is shown as star in the graphs (FIG. 5).

[2] = system: mitochondrial transmembrane potential in C2C12 cells; experiment: JC-1 assay of mitochondrial transmembrane potential; assay type: cell-based, mouse; conditions: 5 μM, 8 μM, 25 μM and 50 μM; one hour of exposure
Procedure: Cells were plated at a density of 80,000 cells per well in black 96-well plates and incubated for 24 hours at 37° C. (5% CO2). They were then treated with fresh solutions of various concentrations of XN, DXN or TXN in growth medium. The final concentrations of XN, DXN, TXN were 1, 2, 5, 8, 25, 50 μM, all in quadruplicate wells, in the 96-well plates. After one hour of exposure to the compounds at 37° C. (5% CO2), the cells were treated with 10 μL of a JC-1 staining solution (freshly prepared by diluting 11 fold 100 μL of the JC-1 agent furnished from the assay kit). After 15 to 30 minutes of incubation (37° C., 5% CO2), the cells were washed three times with the Cell-Based Assay Buffer (prepared by dissolving three buffer tablets of the kit in 300 mL of MilliQ water). The plates were then analyzed by a fluorescent plate reader (SpectraMax Gemini XS) at 560-595 nm and 485-535 nm.
JC-1 can selectively enter into mitochondria and reversibly change color from green to red as the membrane potential increases. In healthy cells with high mitochondrial transmembrane potential, JC-1 spontaneously forms complexes known as J-aggregates with intense red fluorescence with excitation and emission at 560 nm and 595 nm, respectively. […] The ratio of fluorescence intensity of J-aggregates to fluorescence intensity of J-monomers can be used as an indicator of cell heath or mitochondrial state. […] A decrease in the values of the ratios compared to the control is indicative of an alteration in the potential across the mitochondrial membrane.

[3] = Mouse feeding experiment, weight gain; assay type: in vivo; conditions: 30 mg/kg/day in high fat diet, 12 weeks
Procedure: Over the course of 12 weeks, mouse weights were recorded once per week and the average weights were calculated for each group.

C57BL6/J mice = experiment: Plasma metabolites at sacrifice; assay type: in vivo, mouse; conditions: 14 weeks, 30 mg/kg/day; for Mean fasting plasma glucose at time of sacrifice: 6 hour fast, control 158.2±29.6; for Insulin level average: control 1.01±0.44; for Average plasma triglycerides: control 87.5±6.6; for Plasma cholesterol average: control 173.9±31.9
Procedure: The total number of C57BL6/J mice was 48, with 12 mice belonging to each of 4 treatment groups. Duration of the feeding was 14 weeks. Mouse feed contained high fat content (60% of kCal), and was supplemented with XN, DXN, or TXN in the treatment groups. XN, DXN and TXN content within the mouse diet were designed to deliver a dose of 30 mg/kg/day body weight. Food intake was measured three times per week by weighing the food pellet before placement in the cage, and at the time of feed changing by weighing uneaten food. Mice were unrestricted in dietary intake, being allowed to eat as much food as desired. Mice were weighed once per week. Groups included low dose (30 mg/kg) XN, DXN, TXN and no supplement control. Mice were maintained in accordance with the Oregon State University Institutional Animal Care and Use Committee (IACUC) regulations. One mouse was maintained on a standard AIN-93M chow diet to be used as a healthy reference during glucose tolerance assays.
Plasma was collected at sacrifice (14 weeks) to analyze for plasma glucose, triglycerides, cholesterol and insulin. Plasma glucose was assayed using the Wako Autokit Glucose kit (Wako Pure Chemical Industries, Ltd.). […] Samples were allowed to incubate for 5 minutes, and then the absorbance of each well was measured at a wavelength of 505 nm using a SpectraMax 190 spectrophotometer. Glucose was calculated using a 6-point calibration curve containing concentrations of 0, 25, 50, 100, 200 and 400 mg/dL.
Plasma triglycerides were measured using the Infinity™ Triglycerides Reagent kit (Thermo Fisher Scientific, Inc.). […] Absorbance at 500 nm was then measured on a SpectraMax 190 spectrophotometer. Triglyceride levels were calculated from a 6-point calibration curve.
Plasma cholesterol was measured using the Infinity™ Cholesterol Liquid Stable Reagent assay kit (Thermo Fisher Scientific, Inc.). Five μL of plasma from each sample was combined with 195 μL of Infinity™ Cholesterol Liquid Stable Reagent (50 mM phosphate buffer (pH 6.7) containing 200 U/L cholesterol oxidase, 500 U/L cholesterol esterase, 300 U/L peroxidase (horseradish), 0.25 mM 4-aminoantipyrine, 10 mM hydroxybenzoic acid) and incubated for 5 minutes at room temperature. Cholesterol absorbance was then measured using a SpectraMax 190 spectrophotometer at 500 nm, and concentrations were calculated using a 6-point calibration curve.
Plasma insulin levels were assayed using the ALPCO 80-INSMS-E01 mouse insulin enzyme-linked immunosorbent assay (ELISA) kit (ALPCO diagnostics, Salem, N.H.). Ten μL of plasma from each sample was loaded into a 96-well plate (provided in kit) and combined with 75 μL of provided conjugate buffer. The plate was placed on a shaker and incubated for 2 hours at room temperature while shaking at 800 rpm. The buffer was then discarded and the wells were washed 5 times with 100 μL of provided wash buffer. […] After incubation, 100 μL of stop solution was added to each well, and the plate was analyzed on a SpectraMax 190 spectrophotometer at 450 nm. Sample insulin concentrations were calculated using a 6-point calibration curve.

[4] = Dissolution in Seahorse running medium; assay type: physicochemical; conditions: 0.1% of FBS, 37° C.
[5] = 5 μM, after oligomycin 1 μM, compound study, five independent experiments
[6] = 5 μM, oligomycin 1 μM, compound study, average of five independent experiments

SMILES	decrease in ECAR [1, 5] [%]	increase in oxygen consumption ([1]; 5 μM)	increase in OCR in the presence of oligomycin [1, 6] [%]	ratio of aggregates to monomers (JC-1) versus control [2]	weight gain compared to the control [3]	Mean fasting plasma glucose at time of sacrifice (C57BL6/J mice) [mg/dL]	Insulin level average (C57BL6/J mice) [ng/mL]	Average plasma triglycerides (C57BL6/J mice) [mg/dL]	Plasma cholesterol average (C57BL6/J mice) [mg/dL]	effect on OCR at higher concentrations [1]	also measured
COc1cc(O)c(CC=C(C)C)c(O)c1C(=O)CCc1ccc(O)cc1 [DXN, α,β-dihydroxanthohumol]	17.8±2.0	20%	28.7±6.9	changed significantly from the control values	followed DXN, then XN	150.5 ± 45.0	1.04 ± 0.77	84.5 ± 4.9	167.2 ± 33.3		decrease in ECAR ([1]; 2 μM, DXN dosage study): 8.0±2.4%; increase in OCR in the presence of oligomycin ([1]; 2 μM, DXN dosage study, three independent experiments): 6±6%; decrease in ECAR ([1]; 2 μM, after oligomycin 1 μM, compound study, five independent experiments): 5.9±2.0%; increase in OCR in the presence of oligomycin ([1]; 2 μM, oligomycin 1 μM, compound study, average of five independent experiments): 8.9±7.0%; decrease in ECAR ([1]; 5 μM, DXN dosage study): 25.2±2.3%; increase in OCR in the presence of oligomycin ([1]; 5 μM, DXN dosage study, three independent experiments): 30.8±6.0%; decrease in ECAR ([1]; 8 μM, DXN dosage study): 31.6±2.3%; increase in OCR in the presence of oligomycin ([1]; 8 μM, DXN dosage study, three independent experiments): 55.1±6.0%; OCR response in the presence of oligomycin ([1]; 25 μM, DXN dosage study): initial increase in the OCR that was immediately followed by a sharp decrease; decrease in ECAR ([1]; 25 μM, DXN dosage study): 49.8±2.3%; concentration dissolved in running medium [4]: up to 25 μM
COc1cc(O)c(CCC(C)C)c(O)c1C(=O)CCc1ccc(O)cc1 [TXN, tetrahydroxanthohumol]	27.5±2.0	50%	56.8±6.9	changed significantly from the control values	most dramatic reduction in weight gain compared to the control	116.1 ± 24.1	0.500 ± 0.24	76.4 ± 7.8	160.7 ± 30.7	tended to inhibit OCR	
COc1cc(O)c(CC=C(C)C)c(O)c1C(=O)/C=C/c1ccc(O)cc1 [XN, xanthohumol]	4.7±2.0	approximately 10%	11.3±6.9	changed significantly from the control values	followed DXN, then XN	169.1 ± 28.7	1.19 ± 0.68	80.7 ± 4.2	196.2 ± 28.3	tended to inhibit OCR	
